pIC50: −log10 of the molar value. Read-outs that look alike come from different tables or passages of the source.

This is an account of results in patent US20250129067A1 (Progentos Therapeutics, Inc., priority 2021, published 2025).

One data set deals with PDGFRα (Homo sapiens (Human), UniProt P16234). In words: PDGFRα kinase enzyme assay (Promega PDGFRα Kinase Enzyme System, ADP-Glo). It is filed as biochemical. The conditions noted are these: 150 uM ATP. An outline of the steps: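 Purified PDGFRα protein (20 ng) reacted with test compound per the Promega kinase system protocol. ADP formed was measured by ADP-Glo luminescence against a standard curve, giving IC50.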
A general note: ADP-Glo turns the ADP formed in a reaction into a luminescent signal.

Data set [1] relates to Oligodendrocyte progenitor cells (OPCs). In words: In vitro OPC differentiation assay, GPR17 expression (immunocytochemistry). To be noted: 72 hours; for GPR17 Fold Induction (Over Vehicle; 3 μM): 3 μM (10× concentration, final 0.3 μM), fold change over vehicle.
The mark [2] stands for this setting: 11-point dose response, 10,000 nM to 0.169 nM, BLQ = below limit of quantitation, read-out: IC50 Values on PDGFRα Kinase Inhibition, IC50.

PDGFRα, sequence (P16234 24-1089): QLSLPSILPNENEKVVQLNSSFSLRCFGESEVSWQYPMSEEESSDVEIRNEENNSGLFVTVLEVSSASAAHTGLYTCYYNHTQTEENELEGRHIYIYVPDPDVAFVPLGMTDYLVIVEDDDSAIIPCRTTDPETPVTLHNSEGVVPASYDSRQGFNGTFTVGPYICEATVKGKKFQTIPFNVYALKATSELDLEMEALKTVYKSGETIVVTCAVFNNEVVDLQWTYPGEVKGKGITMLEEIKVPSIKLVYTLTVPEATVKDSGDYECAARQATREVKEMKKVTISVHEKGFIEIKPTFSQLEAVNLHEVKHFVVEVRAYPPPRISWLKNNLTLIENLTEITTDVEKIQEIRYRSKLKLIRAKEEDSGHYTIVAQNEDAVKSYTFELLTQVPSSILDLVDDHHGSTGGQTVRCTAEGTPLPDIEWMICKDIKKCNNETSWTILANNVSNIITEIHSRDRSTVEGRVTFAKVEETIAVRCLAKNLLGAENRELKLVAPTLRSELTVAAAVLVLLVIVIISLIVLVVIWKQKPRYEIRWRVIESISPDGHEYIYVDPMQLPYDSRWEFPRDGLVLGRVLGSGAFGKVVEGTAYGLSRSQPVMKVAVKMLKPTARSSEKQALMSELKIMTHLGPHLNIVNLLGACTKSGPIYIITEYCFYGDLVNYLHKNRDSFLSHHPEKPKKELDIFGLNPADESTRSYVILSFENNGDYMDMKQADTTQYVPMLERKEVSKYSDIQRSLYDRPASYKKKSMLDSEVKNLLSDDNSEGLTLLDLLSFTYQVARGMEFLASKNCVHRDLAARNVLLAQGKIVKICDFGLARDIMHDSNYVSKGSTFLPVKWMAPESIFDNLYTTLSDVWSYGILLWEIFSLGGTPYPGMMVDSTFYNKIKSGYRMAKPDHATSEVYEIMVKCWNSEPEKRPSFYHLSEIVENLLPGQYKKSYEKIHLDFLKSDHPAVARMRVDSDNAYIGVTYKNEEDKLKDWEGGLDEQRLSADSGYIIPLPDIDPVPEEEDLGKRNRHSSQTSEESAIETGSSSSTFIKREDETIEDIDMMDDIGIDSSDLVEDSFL

For orientation: pIC50 means −log10 of the IC50, conventionally taken in molar units. With `Cn1cc(-c2cc3ncc(N4CCN(c5ncc(Cc6ccccc6)cn5)CC4)n3cn2)cn1` [Compound 113, 3-(4-(5-benzylpyrimidin-2-yl)piperazin-1-yl)-7-(1-methyl-1H-pyrazol-4-yl)imidazo[1,2-c]pyrimidine], on PDGFRα (setting [2]), the pIC50 is < 5.00. For the same compound, in data set [1], the “GPR17 Fold Induction (Over Vehicle; 3 μM)” value came out at 0.57.
Regarding `Cn1cc(-c2ccc3c(N4CC=C(c5ncc(Cc6ccccc6)cn5)CC4)cnn3c2)cn1` [Compound 300, 3-(4-(5-benzylpyrimidin-2-yl)-3,6-dihydropyridin-1 (2H)-yl)-6-(1-methyl-1H-pyrazol-4-yl)pyrazolo[1,5-a]pyridine], the pIC50 on PDGFRα (setting [2]) is 5.45. In addition, in data set [1], the “GPR17 Fold Induction (Over Vehicle; 3 μM)” value is 1.24.
The matching figures for `Cn1cc(-c2ccc3c(N4CCN(c5ncc(CCc6ccccc6)cn5)CC4)cnn3c2)cn1` [Compound 152, 6-(1-methyl-1H-pyrazol-4-yl)-3-(4-(5-phenethylpyrimidin-2-yl)piperazin-1-yl)pyrazolo[1,5-a]pyridine]: 5.14 and 4.33.
In the case of `Cn1cc(-c2ccc3c(C4=CCC(C(=O)OCc5ccccc5)C4)cnn3c2)cn1` (stereo not drawn) [Compound 133, benzyl 3-[6-(1-methylpyrazol-4-yl)pyrazolo[1,5-a]pyridin-3-yl]cyclopent-3-ene-1-carboxylate], the pIC50 at PDGFRα (setting [2]) was 5.84. Besides, the “GPR17 Fold Induction (Over Vehicle; 3 μM)” value in data set [1] stood at 3.02.
For `CC(C)(C)OC(=O)N1CCN(c2cnn3cc(CCCN4CCCC4)ccc23)CC1` [Compound 205, tert-butyl-4-(6-(3-(pyrrolidin-1-yl)propyl)pyrazolo[1,5-a]pyridin-3-yl)piperazine-1-carboxylate], the pIC50 at PDGFRα (setting [2]) was < 5.00. Also, the “GPR17 Fold Induction (Over Vehicle; 3 μM)” value in data set [1] is on record as 1.92.
On the same counts, the results for `Cn1cc(-c2ccc3c(N4CCN(c5ncc(C(=O)c6ccc(F)cc6)cn5)CC4)cnn3c2)cn1` [Compound 25, (4-fluorophenyl)(2-{4-[6-(1-methyl-1H-pyrazol-4-yl)pyrazolo[1,5-a]pyridin-3-yl]piperazin-1-yl}pyrimidin-5-yl)methanone] are < 5.00 and 1.07.
On the same counts, the results for `CC(C)N(C)C(=O)N1CCN(c2cnn3cc(-c4cnn(C)c4)ccc23)CC1` [Compound 252, N-isopropyl-N-methyl-4-[6-(1-methyl-1H-pyrazol-4-yl)pyrazolo[1,5-a]pyridin-3-yl]piperazine-1-carboxamide] are 6.17 and 1.79.
For the compound `Cn1cc(-c2ccc3c(N4CCN(c5ncnn5Cc5ccccc5)CC4)cnn3c2)cn1` [Compound 239, 3-(4-(1-benzyl-1H-1,2,4-triazol-5-yl)piperazin-1-yl)-6-(1-methyl-1H-pyrazol-4-yl)pyrazolo[1,5-a]pyridine], at PDGFRα (setting [2]), the pIC50 was < 5.00. The “GPR17 Fold Induction (Over Vehicle; 3 μM)” value in data set [1] stood at 1.88.
In the case of `CN1CCC(c2ccc3c(N4CCN(C(=O)OC(C)(C)C)CC4)cnn3c2)C1` (stereo not drawn) [Compound 223, tert-butyl 4-(6-(1-methylpyrrolidin-3-yl)pyrazolo[1,5-a]pyridin-3-yl)piperazine-1-carboxylate], the negative logarithm of the IC50 (pIC50) at PDGFRα (setting [2]) was 5.03. For the same compound, in data set [1], the “GPR17 Fold Induction (Over Vehicle; 3 μM)” value was found to be 1.13.
For the compound `CN(CCN(C)c1cnc2nc(-c3cnn(C)c3)ccn12)C(=O)OC(C)(C)C` [Compound 96], the pIC50 at PDGFRα (setting [2]) is < 5.00. In addition, the “GPR17 Fold Induction (Over Vehicle; 3 μM)” value in data set [1] is recorded as 0.50.
As for `Cn1cc(-c2ccc3c(N4CC(Nc5ncc(Cc6ccccc6)cn5)C4)cnn3c2)cn1` [Compound 149, 5-benzyl-N-(1-(6-(1-methyl-1H-pyrazol-4-yl)pyrazolo[1,5-a]pyridin-3-yl)azetidin-3-yl)pyrimidin-2-amine], at PDGFRα (setting [2]), the pIC50 was < 5.00. The “GPR17 Fold Induction (Over Vehicle; 3 μM)” value in data set [1] is given as 8.88.
Consider `CC1CC(COC(=O)N2CCN(c3cnn4cc(-c5cnn(C)c5)ccc34)CC2)C1` (stereo not drawn) [Compound 310, (3-methylcyclobutyl)methyl 4-[6-(1-methyl-1H-pyrazol-4-yl)pyrazolo[1,5-a]pyridin-3-yl]piperazine-1-carboxylate], for which the pIC50 on PDGFRα (setting [2]) was < 5.00. Moreover, the “GPR17 Fold Induction (Over Vehicle; 3 μM)” value in data set [1] is given as 4.86.
On the same counts, the results for `Cc1nn(C)c(C)c1-c1ccc2c(N3CCN(C(=O)OC(C)(C)C)CC3)cnn2c1` [Compound 222, tert-butyl 4-(6-(1,3,5-trimethyl-1H-pyrazol-4-yl)pyrazolo[1,5-a]pyridin-3-yl)piperazine-1-carboxylate] are 6.04 and 3.74.
Turning to `Cn1cc(-c2ccc3c(N4CCN(C(=O)OCc5ncc(Cl)s5)CC4)cnn3c2)cn1` [Compound 195, (5-chlorothiazol-2-yl)methyl 4-(6-(1-methyl-1H-pyrazol-4-yl)pyrazolo[1,5-a]pyridin-3-yl)piperazine-1-carboxylate], the pIC50 at PDGFRα (setting [2]) is 5.91. Also, the “GPR17 Fold Induction (Over Vehicle; 3 μM)” value in data set [1] came to 5.57.
Regarding `Cn1cc(-c2ccc3c(N4CC5(CN(c6ncc(Cc7ccccc7)cn6)C5)C4)cnn3c2)cn1` [Compound 48, 3-[6-(5-benzylpyrimidin-2-yl)-2,6-diazaspiro[3.3]hept-2-yl]-6-(1-methyl-pyrazol-4-yl)pyrazolo[1,5-a]pyridine], at PDGFRα (setting [2]), the pIC50 is < 5.00. In addition, the “GPR17 Fold Induction (Over Vehicle; 3 μM)” value in data set [1] came out at 2.75.
Turning to `COC(=O)[C@@]1(O)C[C@H]2O[C@]1(C)n1c3ccccc3c3c4c(c5c6ccccc6n2c5c31)C(=O)NC4` [Compound K252a, K252a, reference compound], the pIC50 at PDGFRα (20 ng purified PDGFRα, Poly (Glu4Tyr1) substrate, two hours, 11-point dose response, read-out: IC50 Values on PDGFRα Kinase Inhibition) is 6.37. Also, in data set [1] (primary rat OPCs, 5 μM (10x; final 0.5 μM per method), percent GPR17+ cells as fold change over vehicle), the “GPR17 Fold Induction (Over Vehicle; 5 μM)” value came to 2.53.
For `CN1CCC(OC(=O)N2CCN(c3cnn4cc(-c5cnn(C)c5)ccc34)CC2)CC1` [Compound 19, 1-methylpiperidin-4-yl 4-[6-(1-methyl-1H-pyrazol-4-yl)pyrazolo[1,5-a]pyridin-3-yl]piperazine-1-carboxylate], at PDGFRα (setting [2]), the pIC50 was < 5.00. Also, in data set [1], the “GPR17 Fold Induction (Over Vehicle; 3 μM)” value stood at 0.83.
In the case of `CC(C)(C)OC(=O)N1CCN(c2cnn3cc(C4CCOC4)ccc23)CC1` (stereo not drawn) [Compound 304, tert-butyl 4-(6-(tetrahydrofuran-3-yl)pyrazolo[1,5-a]pyridin-3-yl)piperazine-1-carboxylate], the pIC50 at PDGFRα (setting [2]) was < 5.00. The “GPR17 Fold Induction (Over Vehicle; 3 μM)” value in data set [1] worked out at 1.77.
As to `Cn1cc(-c2ccc3c(C4=CCN(c5ncc(Cc6ccccc6)cn5)CC4)cnn3c2)cn1` [Compound 60, 3-[1-(5-benzylpyrimidin-2-yl)-1,2,3,6-tetrahydropyridin-4-yl]-6-(1-methyl-1H-pyrazol-4-yl)pyrazolo[1,5-a]pyridine], the pIC50 on PDGFRα (setting [2]) was 5.30. Also, the “GPR17 Fold Induction (Over Vehicle; 3 μM)” value in data set [1] is reported as 2.92.
Turning to `CC(C)(C)OC(=O)N1CCN(c2cnn3cc(C4CCOCC4)ccc23)CC1` [Compound 224, tert-butyl-4-(6-(tetrahydro-2H-pyran-4-yl)pyrazolo[1,5-a]pyridin-3-yl)piperazine-1-carboxylate], the pIC50 at PDGFRα (setting [2]) is < 5.00. In addition, in data set [1], the “GPR17 Fold Induction (Over Vehicle; 3 μM)” value worked out at 0.66.
Turning to `C[C@@H](NS(=O)(=O)N1CCN(c2cnn3cc(-c4cnn(C)c4)ccc23)CC1)c1ccc(Cl)cc1` [Compound 293, (R)-N-(1-(4-chlorophenyl)ethyl)-4-(6-(1-methyl-1H-pyrazol-4-yl)pyrazolo[1,5-a]pyridin-3-yl)piperazine-1-sulfonamide], the pIC50 at PDGFRα (setting [2]) is 5.28. Also, the “GPR17 Fold Induction (Over Vehicle; 3 μM)” value in data set [1] came to 7.29.
For `Cn1cc(-c2ccc3c(C(O)CCc4ncc(Cc5ccccc5)cn4)cnn3c2)cn1` (stereo not drawn) [Compound 299, 3-(5-benzylpyrimidin-2-yl)-1-(6-(1-methyl-1H-pyrazol-4-yl)pyrazolo[1,5-a]pyridin-3-yl)propan-1-ol], the pIC50 on PDGFRα (setting [2]) is < 5.00. The “GPR17 Fold Induction (Over Vehicle; 3 μM)” value in data set [1] stood at 1.43.
On to `CN(CCCNc1cnn2cc(-c3cnn(C)c3)ccc12)c1ncc(Cc2ccccc2)cn1` [Compound 129, N^1-(5-benzylpyrimidin-2-yl)-N^1-methyl-N^3-(6-(1-methyl-1H-pyrazol-4-yl)pyrazolo[1,5-a]pyridin-3-yl)propane-1,3-diamine], for which, at PDGFRα (setting [2]), the pIC50 was < 5.00. For the same compound, in data set [1], the “GPR17 Fold Induction (Over Vehicle; 3 μM)” value worked out at 2.27.
With `Cn1cc(-c2ccc3c(N4CCN(C(=O)OCc5ccccc5C(N)=O)CC4)cnn3c2)cn1` [Compound 280, 2-carbamoylbenzyl 4-(6-(1-methyl-1H-pyrazol-4-yl)pyrazolo[1,5-a]pyridin-3-yl)piperazine-1-carboxylate], the pIC50 at PDGFRα (setting [2]) is 5.21. Further, the “GPR17 Fold Induction (Over Vehicle; 3 μM)” value in data set [1] was found to be 3.05.
On the same counts, the results for `Cn1cc(-c2ccc3c(N4CCN(c5ncc(CC6CCOCC6)cn5)CC4)cnn3c2)cn1` [Compound 68, 6-(1-methyl-1H-pyrazol-4-yl)-3-{4-[5-(tetrahydro-2H-pyran-4-ylmethyl)pyrimidin-2-yl]piperazin-1-yl}pyrazolo[1,5-a]pyridine] are 5.91 and 4.35.
On the same counts, the results for `C[C@@H](OC(=O)N1CCN(c2cnc3nc(-c4cnn(C)c4)ccn23)CC1)c1ccccc1` [Compound 116, (R)-1-phenylethyl 4-(7-(1-methyl-1H-pyrazol-4-yl)imidazo[1,2-a]pyrimidin-3-yl)piperazine-1-carboxylate] are 5.19 and 4.31.
For `CN(Cc1ccccc1)C(=O)C1CCC(c2cnn3cc(-c4cnn(C)c4)ccc23)CC1` (stereo not drawn) [Compound 139, N-benzyl-N-methyl-4-(6-(1-methyl-1H-pyrazol-4-yl)pyrazolo[1,5-a]pyridin-3-yl)cyclohexane-1-carboxamide], the pIC50 at PDGFRα (setting [2]) was 5.06. In data set [1], the “GPR17 Fold Induction (Over Vehicle; 3 μM)” value stood at 3.87.
